Measured values from ChEMBL document CHEMBL1143942, “Deoxygenated phosphorothioate inositol phosphate analogs: synthesis, phosphatase stability, and binding affinity” (Bioorg Med Chem, 2008).
Activity calls are given as the source filed them. The rule behind the calls is not given here.

Legend:
[1] = Displacement of [3H]Ins(1,4,5)P3 from Ins(1,4,5)P3 receptor in bovine adrenal cortex; format: tissue-based, Bos taurus
[2] = Inhibition of alkaline phosphatase
[3] = Chemical stability in presence of alkaline phosphatase; format: physicochemical

## O[C@@H]1[C@@H](OP(O)(O)=S)[C@H](OP(O)(O)=S)CC[C@H]1OP(O)(O)=S
[1]
  Kd: 0.81 µM
[2]
  Activity: inactive
[3]; isolated protein
  Stability: Stable

## O=P(O)(O)O[C@@H]1[C@H](O)[C@H](O)[C@@H](OP(=O)(O)O)[C@H](OP(=O)(O)O)[C@H]1O [INS(1,4,5)P3]
[3]
  Kd: 0.054 µM
